Measurements published in patent publication US7135479B2, “Antidepressant azaheterocyclylmethyl derivatives of heterocycle-fused benzodioxans” (Wyeth, priority 2002, dated 2006).
Structures can show the parent of a compound that is named as a salt. Where two headings read alike, the source gives them in different places.

Tests used:
[1] = molecular target: T1, cloned human 5-HT1A receptors (Homo sapiens, UniProt P08908); test: 35S-GTPγS binding assay, antagonist activity at 5-HT1A receptors; type: biochemical; settings: for IC50: potency in reversing the effects of the standard agonist 8-OHDPAT, read-out: 5-HT1A Receptor Affinity IC50 (nM) (Imax): IC50; for Emax: read-out: 5-HT1A Receptor Affinity IC50 (nM) (Imax): Imax
T1 construct: expressed in transfected cells
T1 sequence (P08908 1-422): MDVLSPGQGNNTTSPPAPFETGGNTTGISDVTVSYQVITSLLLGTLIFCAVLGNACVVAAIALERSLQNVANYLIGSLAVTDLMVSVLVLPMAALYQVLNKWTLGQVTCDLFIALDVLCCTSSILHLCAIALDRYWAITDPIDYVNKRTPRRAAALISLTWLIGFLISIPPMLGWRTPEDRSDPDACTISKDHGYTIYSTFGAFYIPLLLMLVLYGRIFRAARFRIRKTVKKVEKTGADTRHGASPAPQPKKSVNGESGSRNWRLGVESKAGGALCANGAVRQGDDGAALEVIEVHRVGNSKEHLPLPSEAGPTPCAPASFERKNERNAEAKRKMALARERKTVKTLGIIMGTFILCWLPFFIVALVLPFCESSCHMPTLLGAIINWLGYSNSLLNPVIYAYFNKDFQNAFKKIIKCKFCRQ
Procedure: Antagonist activity at 5-HT1A receptors was established by using a ^35S-GTPγS binding assay similar to that used by Lazareno and Birdsall (Br. J. Pharmacol. 109: 1120, 1993), in which the test compound's ability to affect the binding of ^35S-GTPγS to membranes containing cloned human 5-HT1A receptors was determined. Agonists produce an increase in binding whereas antagonists produce no increase but rather reverse the effects of the standard agonist 8-OHDPAT. The test compound's maximum inhibitory effect is represented as the Imax, while its potency is defined by the IC50.

human 5-HT1A receptors = molecular target: T2, human 5-HT1A receptors (Homo sapiens, UniProt P08908); test: [3H] 8-OHDPAT displacement from 5-HT1A receptor, CHO cells stably transfected with human 5-HT1A receptors; type: binding; settings: read-out: 5-HT1A Function KI
T2 construct: expressed in transfected cells; host or cells: CHO cells
T2 sequence (P08908 1-422): T1 sequence (P08908 1-422)
Description: High affinity for the serotonin 5-HT1A receptor was established by testing the claimed compound's ability to displace [^3H] 8-OHDPAT (dipropylaminotetralin) from the 5-HT1A serotonin receptor following a modification of the procedure of Hall et al., J. Neurochem. 44, 1685 (1985) which utilizes CHO cells stably transfected with human 5-HT1A receptors.

serotonin transporter = molecular target: T3, serotonin transporter (Rattus norvegicus, UniProt P31652); test: 3H-paroxetine displacement from male rat frontal cortical membranes (affinity for the serotonin transporter); type: binding; settings: read-out: 5-HT Transporter Affinity KI
T3 construct: displace ^3H-paroxetine from male rat frontal cortical membranes; from tissue; host or cells: male rat frontal cortex membranes
T3 sequence (P31652 whole entry): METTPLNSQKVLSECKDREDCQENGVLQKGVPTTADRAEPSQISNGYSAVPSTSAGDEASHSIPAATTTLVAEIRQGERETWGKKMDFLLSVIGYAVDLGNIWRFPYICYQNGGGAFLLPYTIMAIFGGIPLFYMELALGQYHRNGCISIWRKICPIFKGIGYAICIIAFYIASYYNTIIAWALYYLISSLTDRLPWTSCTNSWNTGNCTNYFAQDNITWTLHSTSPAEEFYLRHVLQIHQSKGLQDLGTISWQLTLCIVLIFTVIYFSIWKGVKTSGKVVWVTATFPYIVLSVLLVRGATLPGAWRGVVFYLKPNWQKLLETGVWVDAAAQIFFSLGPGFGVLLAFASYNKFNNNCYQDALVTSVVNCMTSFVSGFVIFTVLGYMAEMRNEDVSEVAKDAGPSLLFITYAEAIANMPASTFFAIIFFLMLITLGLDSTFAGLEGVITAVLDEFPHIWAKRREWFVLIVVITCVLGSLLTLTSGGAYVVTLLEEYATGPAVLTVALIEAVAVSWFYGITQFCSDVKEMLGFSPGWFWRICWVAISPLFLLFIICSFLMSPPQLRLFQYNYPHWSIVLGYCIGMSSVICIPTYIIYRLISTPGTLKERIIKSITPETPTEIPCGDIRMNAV

[2] = value in brackets, maximum inhibitory effect

Row | Structure (SMILES) | melting point | IC50 [1] [nM] | Emax [1, 2] [%] | Ki (human 5-HT1A receptors) [nM] | Ki (serotonin transporter) [nM] | Emax [1] [%]
1 | Cc1ccc2c3c(ccc2n1)OCC(CN1CCCC(Cc2c[nH]c4ccc(F)cc24)C1)O3 (stereo not shown) (as salt: hydrochloride) [Example 2, 2-[3-(5-Fluoro-1H-indol-3-ylmethyl)-piperidin-1-ylmethyl]-8-methyl-2,3-dihydro-[1,4]dioxino[2,3-f]quinoline] | 68 °C (dec.) | – | – | – | – | –
2 | CCc1ccc2c3c(ccc2n1)OC[C@H](CN1CCC(Cn2ccc4ccc(F)cc42)CC1)O3 [Example 7] | – | 208 | 81.5 | 15.2 | 1.61 | –
3 | Cc1ccc2c3c(ccc2n1)OC[C@H](CN1CC(CCn2ccc4ccc(C#N)cc42)C1)O3 (as salt: hydrochloride) [Example 11, 1-{2-[1-(8-Methyl-2,3-dihydro-[1,4]-dioxino[2,3-f]quinolin-2-ylmethyl)-azetinin-3-yl]-ethyl}-1H-indole-6-carbonitrile] | 144 °C (dec.) | – | – | – | – | –
4 | Cc1ccc2c3c(ccc2n1)OCC(CN1CC(Cn2ccc4ccc(F)cc42)C1)O3 (stereo not shown) [Example 9, 2-[3-(6-Fluoro-indol-1-ylmethyl)-azetidin-1-ylmethyl]-8-methyl-2,3-dihydro-[1,4]dioxino[2,3-f]quinoline] | – | – | – | 55 | 0.11 | –
5 | CCc1ccc2c3c(ccc2n1)OC[C@H](CN1CCC(Cn2ccc4ccc(F)cc42)CC1)O3 (as salt: hydrochloride) [Example 7] | > 250 °C | – | – | – | – | –
6 | Cc1ccc2c3c(ccc2n1)OC[C@H](CN1CCC(Cn2ccc4ccc(C#N)cc42)CC1)O3 [Example 8] | – | 243 | 100 | 6.56 | 0.6 | –
7 | Cc1ccc2c3c(ccc2n1)OC[C@H](CN1CC(Cc2cn(C)c4ccc(F)cc24)C1)O3 [Example 5] | – | 34.5 | 96.3 | 16.7 | 0.72 | –
8 | Cc1ccc2c3c(ccc2n1)OCC(CN1CC(Cc2c[nH]c4ccccc24)C1)O3 (stereo not shown) [Example 4, 2-[3-(1H-Indol-3-ylmethyl)-azetidin-1-ylmethyl]-8-methyl-2,3-dihydro-[1,4]dioxino[2,3-f]quinoline] | – | 37.2 | – | 9.2 | 0.56 | 76.4
9 | Cc1ccc2c3c(ccc2n1)OCC(CN1CC(CCn2ccc4ccc(F)cc42)C1)O3 (stereo not shown) (as salt: hydrochloride) [Example 10, 2-{3-[2-(6-Fluoro-indol-1-yl)-ethyl]-azetidin-1-ylmethyl}-8-methyl-2,3-dihydro-[1,4]dioxino[2,3-f]quinoline] | 115 °C (dec.) | – | – | – | – | –
10 | Cc1ccc2c3c(ccc2n1)OC[C@H](CN1CCC(Cn2ccc4ccc(F)cc42)CC1)O3 [Example 6] | – | 242 | 85.5 | 9.55 | 1.01 | –
11 | Cc1ccc2c3c(ccc2n1)OCC(CN1CCCC(Cc2c[nH]c4cc(F)ccc24)C1)O3 (stereo not shown) (as salt: salt) [Example 3, 2-[3-(6-Fluoro-1H-indol-3-ylmethyl)-piperidin-1-ylmethyl]-8-methyl-2,3-dihydro-[1,4]dioxino[2,3-f]quinoline] | 50 °C (dec.) | – | – | – | – | –
12 | Cc1ccc2c3c(ccc2n1)OCC(CN1CC(Cc2c[nH]c4ccc(F)cc24)C1)O3 (stereo not shown) (as salt: hydrochloride) [Example 1, 2-[3-(5-Fluoro-1H-indol-3-ylmethyl)-azetidin-1-ylmethyl]-8-methyl-2,3-dihydro-[1,4]dioxino[2,3-f]quinoline] | 125 °C (dec.) | – | – | – | – | –
13 | Cc1ccc2c3c(ccc2n1)OCC(CN1CCCC(Cc2c[nH]c4cc(F)ccc24)C1)O3 (stereo not shown) [Example 3, 2-[3-(6-Fluoro-1H-indol-3-ylmethyl)-piperidin-1-ylmethyl]-8-methyl-2,3-dihydro-[1,4]dioxino[2,3-f]quinoline] | – | 666 | 100 | 3.4 | 15.1 | –
14 | Cc1ccc2c3c(ccc2n1)OCC(CN1CC(Cn2ccc4ccc(F)cc42)C1)O3 (stereo not shown) (as salt: salt) [Example 9, 2-[3-(6-Fluoro-indol-1-ylmethyl)-azetidin-1-ylmethyl]-8-methyl-2,3-dihydro-[1,4]dioxino[2,3-f]quinoline] | 138 °C (dec.) | – | – | – | – | –
15 | Cc1ccc2c3c(ccc2n1)OC[C@H](CN1CCC(Cn2ccc4ccc(C#N)cc42)CC1)O3 (as salt: fumarate) [Example 8] | 178 to 180 °C | – | – | – | – | –
16 | Cc1ccc2c3c(ccc2n1)OCC(CN1CC(CCn2ccc4ccc(F)cc42)C1)O3 (stereo not shown) [Example 10, 2-{3-[2-(6-Fluoro-indol-1-yl)-ethyl]-azetidin-1-ylmethyl}-8-methyl-2,3-dihydro-[1,4]dioxino[2,3-f]quinoline] | – | 343 | 80 | 1.9 | 4.26 | –
17 | Cc1ccc2c3c(ccc2n1)OCC(CN1CCCC(Cc2c[nH]c4ccc(F)cc24)C1)O3 (stereo not shown) [Example 2, 2-[3-(5-Fluoro-1H-indol-3-ylmethyl)-piperidin-1-ylmethyl]-8-methyl-2,3-dihydro-[1,4]dioxino[2,3-f]quinoline] | – | 552 | 100 | 3.3 | 15.3 | –
18 | Cc1ccc2c3c(ccc2n1)OC[C@H](CN1CC(CCn2ccc4ccc(C#N)cc42)C1)O3 [Example 11, 1-{2-[1-(8-Methyl-2,3-dihydro-[1,4]-dioxino[2,3-f]quinolin-2-ylmethyl)-azetinin-3-yl]-ethyl}-1H-indole-6-carbonitrile] | – | 251 | 85 | 1.52 | 2.86 | –
19 | Cc1ccc2c3c(ccc2n1)OC[C@H](CN1CC(Cc2cn(C)c4ccc(F)cc24)C1)O3 (as salt: oxalate) [Example 5] | 193 to 195 °C | – | – | – | – | –
20 | Cc1ccc2c3c(ccc2n1)OC[C@H](CN1CCC(Cn2ccc4ccc(F)cc42)CC1)O3 (as salt: fumarate) [Example 6] | 140 to 142 °C | – | – | – | – | –
21 | Cc1ccc2[nH]cc(CC3CN(C[C@H]4COc5ccc6nc(C)ccc6c5O4)C3)c2c1 [Example 12, 8-Methyl-2-[3-(5-methyl-1H-indol-3-ylmethyl)-azetidin-1-ylmethyl]-2,3-dihydro-[1,4]dioxino[2,3-f]quinoline] | – | 38.6 | 89.5 | – | 1.04 | –
22 | Cc1ccc2c3c(ccc2n1)OCC(CN1CC(Cc2c[nH]c4ccc(F)cc24)C1)O3 (stereo not shown) [Example 1, 2-[3-(5-Fluoro-1H-indol-3-ylmethyl)-azetidin-1-ylmethyl]-8-methyl-2,3-dihydro-[1,4]dioxino[2,3-f]quinoline] | – | 59.5 | 73.7 | 2.5 | 1.29 | –
